Drawing on PubChem BioAssay AID1259407 (Chemical Carcinogenesis Research Information System (CCRIS), 2018), this text covers mutagenic call for eleven compounds.

Activity calls are given as the source filed them. The rule behind the calls is not given here.

In the series the test system is CCRIS mutagenicity, Ames/micronucleus/aberration tests. Kind of series: CCRIS mutagenicity studies.
The mark [1] stands for this setting: Test System: AMES SALMONELLA TYPHIMURIUM, Strain/Indicator: TA100, Metabolic Activation: NONE, Method: STANDARD PLATE.
The mark [2] stands for this setting: Test System: AMES SALMONELLA TYPHIMURIUM, Strain/Indicator: TA100, Metabolic Activation: RAT, LIVER, S-9, AROCLOR 1254, Method: STANDARD PLATE.
The mark [3] stands for this setting: Test System: AMES SALMONELLA TYPHIMURIUM, Strain/Indicator: TA98, Metabolic Activation: NONE, Method: PREINCUBATION
The mark [4] stands for this setting: Test System: AMES SALMONELLA TYPHIMURIUM, Strain/Indicator: TA100, Metabolic Activation: NONE, Method: PREINCUBATION
The mark [5] stands for this setting: Test System: AMES SALMONELLA TYPHIMURIUM, Strain/Indicator: TA98, Metabolic Activation: NONE, Method: STANDARD PLATE.
The mark [6] stands for this setting: Test System: AMES SALMONELLA TYPHIMURIUM, Strain/Indicator: TA1535, Metabolic Activation: NONE, Method: STANDARD PLATE.
The mark [7] stands for this setting: Test System: AMES SALMONELLA TYPHIMURIUM, Strain/Indicator: TA1537, Metabolic Activation: NONE, Method: STANDARD PLATE.

With `O=[N+]([O-])c1cc2c(ccc3cc(N(CCCl)CCCl)ccc32)o1`, the mutagenic call is “active; positive” (Test System: AMEA SALMONELLA TYPHIMURIUM, Strain/Indicator: TA100(NR), Metabolic Activation: NONE, Method: STANDARD PLATE); “active; positive” (Test System: AMES SALMONELLA TYPHIMURIUM, Strain/Indicator: TA100(NR), Metabolic Activation: RAT, LIVER, S-9, AROCLOR 1254, Method: STANDARD PLATE); “active; positive” under setting [1]; “active; positive” under setting [2].

Consider `Cc1cc2c(c3ccc4ccccc4c13)CCC2`, for which the mutagenic call is, setting by setting: under setting [1], “inactive; negative”; under setting [2], “inactive; negative”.

`COc1cc(C(C)=O)cc(OC)c1O`: the mutagenic call was “inactive; negative” (Test System: AMES SALMONELLA TYPHIMURIUM, Strain/Indicator: TA97, Metabolic Activation: NONE, Method: PREINCUBATION); “inactive; negative” (Test System: AMES SALMONELLA TYPHIMURIUM, Strain/Indicator: TA97, Metabolic Activation: RAT, LIVER, S-9, AROCLOR 1254, Method: PREINCUBATION); “inactive; negative” under setting [3]; “inactive; negative” (Test System: AMES SALMONELLA TYPHIMURIUM, Strain/Indicator: TA98, Metabolic Activation: RAT, LIVER, S-9, AROCLOR 1254, Method: PREINCUBATION); “inactive; negative” under setting [4]; “inactive; negative” (Test System: AMES SALMONELLA TYPHIMURIUM, Strain/Indicator: TA100, Metabolic Activation: RAT, LIVER, S-9, AROCLOR 1254, Method: PREINCUBATION). Further, the mutagenic call is, setting by setting: (Test System: AMES SALMONELLA TYPHIMURIUM, Strain/Indicator: TA102, Metabolic Activation: NONE, Method: PREINCUBATION) “inactive; negative”; (Test System: AMES SALMONELLA TYPHIMURIUM, Strain/Indicator: TA102, Metabolic Activation: RAT, LIVER, S-9, AROCLOR 1254, Method: PREINCUBATION) “inactive; negative”.

On to `O=[N+]([O-])O.O=[N+]([O-])O.[Cd+2]`, for which the mutagenic call (Test System: E. COLI, Strain/Indicator: DG1153, Metabolic Activation: NONE, Method: FLUCTUATION TEST) is “active; positive”.

For `Nc1nccs1`, the mutagenic call reads like this: (Test System: AMES SALMONELLA TYPHIMURIUM, Strain/Indicator: TA98, Metabolic Activation: RAT, LIVER, S-9, AROCLOR 1254, HAMSTER, LIVER, S-9, AROCLOR 1254, Method: STANDARD PLATE) “active; positive”; (Test System: AMES SALMONELLA TYPHIMURIUM, Strain/Indicator: TA1538, Metabolic Activation: RAT, LIVER, S-9, AROCLOR 1254, HAMSTER, LIVER, S-9, AROCLOR 1254, Method: STANDARD PLATE) “active; positive”; (Test System: MOUSE LYMPHOMA, Strain/Indicator: L5178Y (TK+/TK-), Metabolic Activation: NONE, Method: SUSPENSION/PLATE) “active; positive. reevaluation of results: equivocal”; (Test System: MOUSE LYMPHOMA, Strain/Indicator: L5178Y (TK+/TK-), Metabolic Activation: RAT, LIVER, S-9, AROCLOR 1254, Method: SUSPENSION/PLATE) “active; positive. reevaluation of results: equivocal”.

For the compound `O=C1c2ccccc2CN2C(=O)c3ccccc3CN12`, the mutagenic call runs as follows: (Test System: AMES SALMONELLA TYPHIMURIUM, Strain/Indicator: TA98, Metabolic Activation: MOUSE, LIVER, S-9, PHENOBARBITAL AND 5,6-BENZOFLAVONE, Method: STANDARD PLATE) “inactive; negative”; under setting [5], “inactive; negative”; (Test System: AMES SALMONELLA TYPHIMURIUM, Strain/Indicator: TA100, Metabolic Activation: MOUSE, LIVER, S-9, PHENOBARBITAL AND 5,6-BENZOFLAVONE, Method: STANDARD PLATE) “inactive; negative”; under setting [1], “inactive; negative”; (Test System: AMES SALMONELLA TYPHIMURIUM, Strain/Indicator: TA102, Metabolic Activation: MOUSE, LIVER, S-9, PHENOBARBITAL AND 5,6-BENZOFLAVONE, Method: STANDARD PLATE) “inactive; negative”; (Test System: AMES SALMONELLA TYPHIMURIUM, Strain/Indicator: TA102, Metabolic Activation: NONE, Method: STANDARD PLATE) “inactive; negative”.

Consider `O=C1c2ccccc2C(=O)c2c(O)c(O)cc(O)c21`, for which the mutagenic call by setting is: under setting [3], “inactive; negative”; (Test System: AMES SALMONELLA TYPHIMURIUM, Strain/Indicator: TA98, Metabolic Activation: RAT, LIVER, S-9, AROCLOR 1254, Method: STANDARD PLATE) “inactive; negative”; (Test System: AMES SALMONELLA TYPHIMURIUM, Strain/Indicator: TA98, Metabolic Activation: RAT, LIVER, S-9, PCB, Method: PREINCUBATION) “inactive; negative”; under setting [4], “inactive; negative”; under setting [2], “inactive; negative”; (Test System: AMES SALMONELLA TYPHIMURIUM, Strain/Indicator: TA100, Metabolic Activation: RAT, LIVER, S-9, PCB, Method: PREINCUBATION) “inactive; negative”. The mutagenic call is, setting by setting: under setting [6], “inactive; negative”; (Test System: AMES SALMONELLA TYPHIMURIUM, Strain/Indicator: TA1535, Metabolic Activation: RAT, LIVER, S-9, AROCLOR 1254, Method: STANDARD PLATE) “inactive; negative”; (Test System: AMES SALMONELLA TYPHIMURIUM, Strain/Indicator: TA1537, Metabolic Activation: NONE, Method: PREINCUBATION) “active; positive”; under setting [7], “active; positive”; (Test System: AMES SALMONELLA TYPHIMURIUM, Strain/Indicator: TA1537, Metabolic Activation: RAT, LIVER, S-9, AROCLOR 1254, Method: STANDARD PLATE) “active; positive”; (Test System: AMES SALMONELLA TYPHIMURIUM, Strain/Indicator: TA1537, Metabolic Activation: RAT, LIVER, S-9, Method: PREINCUBATION) “active; positive”. Further, the mutagenic call is, setting by setting: (Test System: CHINESE HAMSTER V-79, Strain/Indicator: V-79/8-AZAGUANINE, Metabolic Activation: NONE, Method: STANDARD PLATE) “active; positive”; (Test System: UDS RODENT HEPATOCYTES, Strain/Indicator: THY INCORP (NON-S-PHASE), Method: AUTORADIOGRAPHY) “active; positive”.

As for `Nc1snc2ccc([N+](=O)[O-])cc12`, the mutagenic call is “active; positive” under setting [5]; “active; positive” (Test System: AMES SALMONELLA TYPHIMURIUM, Strain/Indicator: TA98, Metabolic Activation: S-9, Method: STANDARD PLATE); “active; positive” under setting [1]; “active; positive” (Test System: AMES SALMONELLA TYPHIMURIUM, Strain/Indicator: TA100, Metabolic Activation: S-9, Method: STANDARD PLATE); “inactive; negative” under setting [6]; “inactive; negative” (Test System: AMES SALMONELLA TYPHIMURIUM, Strain/Indicator: TA1535, Metabolic Activation: S-9, Method: STANDARD PLATE). For the same compound, the mutagenic call is “active; positive” under setting [7] and “active; positive” (Test System: AMES SALMONELLA TYPHIMURIUM, Strain/Indicator: TA1537, Metabolic Activation: S-9, Method: STANDARD PLATE).

Regarding `c1ccc2c(c1)C1=c3c-2cc2cccc4ccc(c3c42)C2OC12` (stereo not given), the mutagenic call under setting [1] was “active; positive”.

For the compound `O=[N+]([O-])c1c2c(c3ccc4cccc5ccc1c3c45)CCCC2O` (stereo not given), the mutagenic call reads like this: under setting [5], “inactive; negative”; under setting [1], “inactive; negative”.

`O=[N+]([O-])c1ccc(Br)cc1`: the mutagenic call is, setting by setting: (End Point: IN VITRO CHROMOSOMAL ABERRATIONS, Test System: HUMAN PERIPHERAL LYMPHOCYTES, Metabolic Activation: NONE) “inactive; negative”; under setting [3], “inactive; negative”; (Test System: AMES SALMONELLA TYPHIMURIUM, Strain/Indicator: TA98, Metabolic Activation: RAT, LIVER, S-9, KANECHLOR 500, Method: PREINCUBATION) “inactive; negative”; under setting [4], “inactive; negative”; (Test System: AMES SALMONELLA TYPHIMURIUM, Strain/Indicator: TA100, Metabolic Activation: RAT, LIVER, S-9, KANECHLOR 500, Method: PREINCUBATION) “active; positive”.
